Article PMC5563080, “The High-Affinity Interaction between ORC and DNA that Is Required for Replication Licensing Is Inhibited by 2-Arylquinolin-4-Amines” (Cell Chemical Biology, 2017)

Test system: U2OS
Experiment: cells
Set-up: Inhibition of MCM4 chromatin loading (replication licensing) in synchronised U2OS cells, immunofluorescence high-content imaging
Details: Homo sapiens, 8 h, MCM4 DNA binding
Method: We used these changes to design a high-throughput assay for licensing inhibitors (Figure 1B). Human U2OS cells were released into S phase from a double-thymidine block (Figures S1A–S1C) and then treated with RO3306, a CDK1 inhibitor, to reversibly block them in G2 (Figure S1D). RO3306 was removed and cells were seeded into 384-well plates containing test compounds (Figure S1E). Eight hours later, when cells should have passed through mitosis and loaded MCM2–7, cells were fixed and immunostained for DNA-bound MCM4 and also treated with DAPI to stain total DNA (Figure S1F). Microscopic images of each treatment (Figures 1C and 1D) were taken on an InCell 1000 system, which returned values for MCM4 and DNA content for each of the cells identified. To avoid any confounding effects of RO3306 treatment, we then retested these 280 compounds using a low-throughput screen whereby cells were synchronized by mitotic shake-off prior to exposure with test compounds. This low-throughput assay also has the advantage of removing cells that suffer non-specific inhibition by test compounds, as only metabolically active cells can re-adhere to the plates. Sixteen compounds produced a reproducible reduction (>60%) of DNA-bound MCM4 in this assay. These 16 compounds fell into eight discrete chemical families, which we named RL1 to RL8. After resynthesis and re-assay, we decided to take 12 of these 16 compounds forward for further study: RL1a, RL1b, RL2, RL3a, RL3b, RL4, RL5a–RL5e, and RL8. […] Microscopic images (6 fields / well) of each treatment were taken on an InCell 1000 system (GE healthcare) using a 20x objective. ActivityBase from ID Business Solutions was used for the data processing and analysis, returning values for Mcm4 and DNA content for each of the cells identified. Figure S6 details the plate maps used for the assay. A Quality Control plate was included for every three assay plates (Figure S6), where columns 1-12 were low control wells (+ R03306 + 1% DMSO) and columns 13-24 were high control well (+Media + 1% DMSO). The performance of the assay on each screening plate was evaluated using internal controls. The criteria for data acceptance of an assay plate were signal to background (mean Hi Control) / (mean Lo Control) >1.5; Z-prime (1 - (3 x Lo Control Standard Deviation + 3 x SD Hi Control Standard Deviation) / (mean Hi Control - mean Lo Control)) >0.3. The statistics from all assay plates and Quality Control plates were analysed. The screen performance indicators were: signal to background 2.4±0.53 and Z-prime 0.47±0.10.

SMILES | IC50 [µM]
CN(C)CCNc1cc(-c2ccco2)nc2ccccc12 [RL5a] | 8
CN(C)CCNc1cc(-c2cccs2)nc2ccccc12 [RL5b] | 22
CN(C)CCNc1nc(-c2ccncc2)nc2ccccc12 [RL5c] | 59
CCN(CC)CCNc1nc(-c2cccc(Cl)c2)nc2ccccc12 [RL5d] | 32
Cc1c(C)n(-c2nc3ccccc3s2)c2ncnc(NCCN(C)C)c12 [RL5e] | 7
